Consider 7 molecules from ChEMBL document CHEMBL1146792, “Antimitotic activity of glaupalol-related coumarins from Glaucidium palmatum” (Bioorg Med Chem Lett, 2004).

Assay [1] addresses Tubulin alpha chain (Sus scrofa, UniProt P02550). In words: Inhibition of the polymerization of tubulin. It counts as functional.
Assay [2] concerns KB. In words: Compound was tested for cytotoxicity against human KB cells. It counts as functional, cell-based.

pIC50: −log10 of the molar value. ≈ marks a conversion by molar mass, not a printed value.

Chain of Tubulin alpha chain (P02550 whole entry, looked up): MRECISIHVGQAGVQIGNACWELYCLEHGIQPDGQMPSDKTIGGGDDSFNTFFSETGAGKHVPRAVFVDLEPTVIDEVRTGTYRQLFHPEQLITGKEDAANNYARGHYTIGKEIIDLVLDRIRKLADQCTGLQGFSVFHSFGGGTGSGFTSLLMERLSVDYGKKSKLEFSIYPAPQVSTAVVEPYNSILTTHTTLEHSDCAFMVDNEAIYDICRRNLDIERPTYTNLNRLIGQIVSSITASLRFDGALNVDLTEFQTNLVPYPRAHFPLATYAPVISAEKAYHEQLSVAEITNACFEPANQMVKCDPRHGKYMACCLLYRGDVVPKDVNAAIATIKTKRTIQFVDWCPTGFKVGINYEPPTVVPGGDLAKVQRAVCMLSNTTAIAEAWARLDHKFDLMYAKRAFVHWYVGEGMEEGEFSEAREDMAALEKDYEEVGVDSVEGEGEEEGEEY

As a reminder, the pIC50 is −log10 of the IC50, conventionally taken in molar units. A higher pIC50 goes with a small IC50. As a reminder, the IC50 is the concentration that inhibits the measured activity by half. A lower IC50 goes with greater potency. For `CC(=O)OC[C@@]1(C)c2c(c3c(C)c(O)ccc3oc2=O)O[C@H]1C`, the negative logarithm of the IC50 (pIC50) in assay [1] was 5.00. In addition, the IC50 in assay [2] was determined as 23 µg/mL (≈ 72.3 µM). Regarding `Cc1c(O)ccc2oc(=O)c3c(c12)OC(C)C3(C)C` (centres undefined), inhibition in assay [2] was half-maximal at 1.5 µg/mL (≈ 5.76 µM) (IC50).

With `COc1cc(=O)oc2ccc(O)c(C)c12`, inhibition in assay [2] was half-maximal at 4.8 µg/mL (≈ 23.3 µM) (IC50). Consider `Cc1c(O)ccc2oc(=O)c3c(c12)O[C@H](C)[C@@]3(C)CO`, for which, in assay [2], it took 4.3 µg/mL (≈ 15.6 µM) to reach half-maximal inhibition (IC50).

Regarding `Cc1c(O)ccc2oc(=O)c3c(c12)O[C@@H](C)[C@@]3(C)CO`, the midpoint of inhibition in assay [2], the IC50, lay at 5.7 µg/mL (≈ 20.6 µM). Molecule `CC(=O)OC[C@@]1(C)c2c(c3c(C)c(O)ccc3oc2=O)O[C@@H]1C` showed a negative logarithm of the IC50 (pIC50) in assay [1] of 4.52. In assay [2], this molecule came in with an IC50 of 17 µg/mL (≈ 53.4 µM). `Cc1c(OC2O[C@H](CO)[C@@H](O)[C@H](O)[C@H]2O)ccc2oc(=O)c3c(c12)OC(C)C3(C)C` (single isomer, unassigned) registered an IC50 in assay [2] of 6.7 µg/mL (≈ 15.9 µM).
